Our source for the EC50 and Emax values is patent US10130615B2, “Benzomorphan analogs and the use thereof” (priority 2014, dated 2018).

For test [1], the target named is T1, μ-opioid receptor (Homo sapiens, UniProt P35372). Kind of test: biochemical. To be noted: HEK-293 or CHO cells; for EC50: read-out: GTPγS μ EC50; for Emax: relative to DAMGO, read-out: GTPγS μ Emax. More on the design: purchased Perkin Elmer, Shelton, Conn; host or cells: HEK-293 or CHO.
Test [2] has as its target T1, μ-opioid receptor. Nature of the test: cell-based. Further details: purchased Perkin Elmer, Shelton, Conn. To be noted: U2OS cells; for EC50: read-out: β-Arr2 μ EC50; for Emax: read-out: β-Arr2 μ Emax.
Test [3] deals with T1, μ-opioid receptor. Kind of test: μ-opioid receptor GTPγS functional assay, U2OS cells. The following applies: for Emax: read-out: GTPγS μ Emax.
The target in the next test is κ-opioid receptor (Homo sapiens, UniProt P41145). Kind of test: κ-opioid receptor GTPγS functional assay, U2OS cells. The test is classed as biochemical. More on the design: expressed in transfected cells; host or cells: U-2 OS. The following applies: U2OS cells; for EC50: read-out: GTPγS κ EC50. As to the method:
Plates were incubated for 30 min at a temperature of about 25° C. with shaking.

Sequence of κ-opioid receptor (P41145 whole entry): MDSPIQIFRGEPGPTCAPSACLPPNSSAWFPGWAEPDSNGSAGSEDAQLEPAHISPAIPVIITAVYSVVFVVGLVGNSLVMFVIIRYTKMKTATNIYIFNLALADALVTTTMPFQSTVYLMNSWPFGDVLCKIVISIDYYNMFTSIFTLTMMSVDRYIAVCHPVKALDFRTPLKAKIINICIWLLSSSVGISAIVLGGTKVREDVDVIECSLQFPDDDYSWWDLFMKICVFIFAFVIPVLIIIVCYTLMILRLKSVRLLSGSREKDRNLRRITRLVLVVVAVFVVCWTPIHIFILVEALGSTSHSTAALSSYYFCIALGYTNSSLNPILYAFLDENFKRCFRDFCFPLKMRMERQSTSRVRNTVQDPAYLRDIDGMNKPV
T1 sequence (P35372 whole entry, species assumed): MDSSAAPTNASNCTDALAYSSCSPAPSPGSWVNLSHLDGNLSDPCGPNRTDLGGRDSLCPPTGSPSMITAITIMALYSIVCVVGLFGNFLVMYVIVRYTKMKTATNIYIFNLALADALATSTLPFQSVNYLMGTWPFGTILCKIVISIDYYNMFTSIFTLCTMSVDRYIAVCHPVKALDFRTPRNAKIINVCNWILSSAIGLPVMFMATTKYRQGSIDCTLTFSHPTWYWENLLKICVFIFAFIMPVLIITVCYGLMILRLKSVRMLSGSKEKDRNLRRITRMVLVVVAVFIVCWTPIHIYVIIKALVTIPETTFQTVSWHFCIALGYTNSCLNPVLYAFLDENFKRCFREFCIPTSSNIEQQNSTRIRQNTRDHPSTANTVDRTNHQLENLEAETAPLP

The EC50 is the concentration giving half of the maximal effect. For orientation: Emax means the maximal effect, on the per cent scale that the assay sets. On to `C[C@H]1[C@H]2Cc3ccc(O)cc3[C@]1(CCNS(=O)(=O)c1ccc(F)cc1)CCN2C` [Compound 69, 4-fluoro-N-(2-((2R,6S,11R)-8-hydroxy-3,11-dimethyl-2,3,4,5-tetrahydro-2,6-methanobenzo[d]azocin-6(1H)-yl)ethyl)-benzenesulfonamide], for which, at μ-opioid receptor [1], the EC50 is 5.42 ± 1.11 nM and the Emax came to 59.3 ± 1.2%. At μ-opioid receptor [2], the EC50 is 2.97 ± 0.34 nM and the Emax is 14.7 ± 0.88%.

For the compound `C[C@H]1[C@H]2Cc3ccc(O)cc3[C@]1(CCNC(=O)c1ccc(F)cc1)CCN2C` [Compound 83, 4-Fluoro-N-(2-((2R,6R,11R)-8-hydroxy-3,11-dimethyl-2,3,4,5-tetrahydro-2,6-methanobenzo[d]azocin-6(1H)-yl)ethyl)benzamide], on μ-opioid receptor [1], the EC50 came out at 13.6 ± 3.38 nM and the Emax stood at 77.2 ± 3.52%. In addition, on μ-opioid receptor [2], the EC50 was 13.8 ± 3.03 nM and the Emax turned out to be 46.5 ± 1.93%.

Take `C[C@H]1[C@H]2Cc3ccc(O)cc3[C@]1(CCNC(=O)Nc1ccccc1)CCN2C` [Compound 68, 1-(2-((2R,6R,11R)-8-hydroxy-3,11-dimethyl-2,3,4,5-tetrahydro-2,6-methano-benzo[d]azocin-6(1H)-yl)ethyl)-3-phenylurea]: at μ-opioid receptor [1], the EC50 is 28.5 ± 2.07 nM and the Emax is 75.8 ± 2.39%. Moreover, on μ-opioid receptor [2], the EC50 was 18.9 ± 1.23 nM and the Emax is 72.3 ± 0.88%.

For the compound `C[C@H]1[C@H]2Cc3ccc(O)cc3[C@]1(CCN1CCC(N(C3CC3)S(=O)(=O)c3ccccc3)CC1)CCN2C` [Compound 7, N-cyclopropyl-N-(1-(2-((2R,6R,11R)-8-hydroxy-3,11-dimethyl-2,3,4,5-tetrahydro-2,6-methanobenzo[d]azocin-6(1H)-yl)ethyl)piperidin-4-yl)benzene-sulfonamide], the EC50 came out at 83.1 ± 1.96 nM at μ-opioid receptor [3], 624 ± 65.9 nM at μ-opioid receptor [1] and 503 ± 116 nM on μ-opioid receptor [2]. The Emax on μ-opioid receptor [3] stood at 99 ± 1%; at μ-opioid receptor [1], 54.5 ± 4.33%; on μ-opioid receptor [2] it was 23.4 ± 1.33%.

In the case of `C[C@H]1[C@H]2Cc3ccc(O)cc3[C@]1(CCNC(=O)[C@@H]1CCC(=O)N1)CCN2C` [Compound 72, (S)-N-(2-((2R,6R,11R)-8-hydroxy-3,11-dimethyl-2,3,4,5-tetrahydro-2,6-methano-benzo[d]azocin-6(1H)-yl)ethyl)-5-oxopyrrolidine-2-carboxamide], the EC50 at μ-opioid receptor [1] was 241 ± 56.7 nM; on μ-opioid receptor [2], 267 ± 63.3 nM. The values for the Emax on μ-opioid receptor [1] and at μ-opioid receptor [2] were 37.2 ± 1.8% and 5.8 ± 0.42%, respectively.

As for `C[C@H]1[C@H]2Cc3ccc(O)cc3[C@]1(CCNC(=O)c1ccc(C(N)=O)cc1)CCN2C` [Compound 86, N-(2-((2R,6R,11R)-8-hydroxy-3,11-dimethyl-2,3,4,5-tetrahydro-2,6-methanobenzo[d]azocin-6(1H)-yl)ethyl)terephthalamide], on μ-opioid receptor [1], the EC50 stood at 252 ± 23.5 nM and the Emax turned out to be 48.2 ± 1.26%. Besides, on μ-opioid receptor [2], the EC50 was found to be 289 ± 91.8 nM and the Emax came out at 11.2 ± 0.69%.

As to `C[C@H]1[C@H]2Cc3ccc(O)cc3[C@]1(CCNC(=O)NS(=O)(=O)c1ccc(F)cc1)CCN2C` [Compound 66, 4-fluoro-N-((2-((2R,6R,11R)-8-hydroxy-3,11-dimethyl-2,3,4,5-tetrahydro-2,6-methanobenzo[d]azocin-6(1H)-yl)-ethyl)carbamoyl)benzenesul-fonamide], at μ-opioid receptor [1], the EC50 is 174 ± 13.1 nM and the Emax turned out to be 37.3 ± 0.88%. Besides, on μ-opioid receptor [2], the EC50 worked out at 2290 ± 703 nM and the Emax was 15.9 ± 0.72%.

Take `COc1ccc2c(c1)[C@]1(CCNCCc3ccc(S(N)(=O)=O)cc3)CCN(C)[C@H](C2)[C@@H]1C` [Compound 51, 4-(2-((2-((2R,6R,11R)-8-methoxy-3,11-dimethyl-2,3,4,5-tetrahydro-2,6-methanobenzo[d]azocin-6(1H)-yl)ethyl)-amino)ethyl)benzenesulfonamide]: at μ-opioid receptor [3], the EC50 was 6710 ± 257 nM and the Emax was found to be 76.7 ± 3.71%. For the same compound, on κ-opioid receptor, the Emax worked out at 96.3 ± 0.67% and the concentration giving a half-maximal response (EC50) amounted to 6280 ± 318 nM.

Turning to `COc1ccc2c(c1)[C@@]1(CCO)CCN(C)[C@@H](C2)[C@H]1C` [Compound 49, 2-((2S,6R,11S)-8-methoxy-3,11-dimethyl-2,3,4,5-tetrahydro-2,6-methanobenzo-[d]azocin-6(1H)-yl)ethan-1-ol], the Emax at μ-opioid receptor [3] is 21%; at κ-opioid receptor, 41 ± 4.58%.

Regarding `C[C@H]1[C@H]2Cc3ccc(O)cc3[C@]1(CCNC(=O)CCc1ccccc1)CCN2C` [Compound 85, N-(2-((2R,6R,11R)-8-hydroxy-3,11-dimethyl-2,3,4,5-tetrahydro-2,6-methanobenzo[d]azocin-6(1H)-yl)ethyl)-3-phenylpropanamide], the figures for the EC50 on μ-opioid receptor [1] and on μ-opioid receptor [2] were 6.51 ± 0.17 nM and 6.55 ± 2.88 nM, respectively. Moreover, the Emax on μ-opioid receptor [1] is 69.5 ± 2.23%; on μ-opioid receptor [2], 39.8 ± 0.77%.

For the compound `C[C@H]1[C@H]2Cc3ccc(O)cc3[C@]1(CCNC(=O)NCc1ccccc1)CCN2CC1CC1` [Compound 21, 1-benzyl-3-(2-((2R,6R,11R)-3-(cyclopropylmethyl)-8-hydroxy-11-methyl-2,3,4,5-tetrahydro-2,6-methanobenzo[d]azocin-6(1H)-yl)ethyl)urea], the values for the EC50 on μ-opioid receptor [1] and at μ-opioid receptor [2] were 0.28 ± 0.027 nM and 0.38 ± 0.11 nM, respectively. Moreover, the maximal response (Emax) was 54.7 ± 2.63% on μ-opioid receptor [1] and 30.1 ± 0.81% on μ-opioid receptor [2].

As for `COc1ccc2c(c1)[C@]1(CCN(C)CCCN(C)C)CCN(C)[C@H](C2)[C@@H]1C` [Compound 54], on μ-opioid receptor [3], the EC50 was 18700 ± 1890 nM and the Emax worked out at 95 ± 2.65%. Moreover, at κ-opioid receptor, the Emax amounted to 125 ± 1.53% and the EC50 was 9860 ± 349 nM.

Consider `COc1ccc2c(c1)[C@]1(CCNCCCN3CCCC3=O)CCN(C)[C@H](C2)[C@@H]1C` [Compound 57, 1-(3-((2-((2R,6R,11R)-8-methoxy-3,11-dimethyl-2,3,4,5-tetrahydro-2,6-methanobenzo-[d]azocin-6(1H)-yl)ethyl)amino)propyl)pyrrolidin-2-one], for which the figures for the half-maximal effective concentration (EC50) on μ-opioid receptor [3] and at κ-opioid receptor were 11300 ± 435 nM and 11400 ± 994 nM, respectively. Besides, the Emax at μ-opioid receptor [3] was 70.7 ± 2.03%; on κ-opioid receptor it was 118 ± 2%.

On to `C[C@H]1[C@H]2Cc3ccc(O)cc3[C@]1(CCNC(=O)Nc1ccccc1F)CCN2C` [Compound 78, 1-(2-fluorophenyl)-3-(2-((2R,6R,11R)-8-hydroxy-3,11-dimethyl-2,3,4,5-tetrahydro-2,6-methanobenzo[d]azocin-6(1H)-yl)ethyl)urea], for which, on μ-opioid receptor [1], the EC50 was 33.5 ± 4.9 nM and the Emax was determined as 71 ± 3.61%. Besides, on μ-opioid receptor [2], the EC50 is 90.5 ± 15.4 nM and the Emax is 67 ± 3.71%.

Take `C[C@H]1[C@H]2Cc3ccc(O)cc3C1(CCNS(=O)(=O)N(C)C)CCN2C` [Compound 80]: the EC50 is 134 ± 3.21 nM at μ-opioid receptor [1] and 1180 ± 822 nM on μ-opioid receptor [2]. Also, the Emax stood at 27.9 ± 0.47% on μ-opioid receptor [1] and 2.62 ± 0.36% on μ-opioid receptor [2].

In the case of `COc1ccc2c(c1)[C@]1(CCNCCCn3ccnc3)CCN(C)[C@H](C2)[C@@H]1C` [Compound 55, 3-(1H-imidazol-1-yl)-N-(2-((2R,6R,11R)-8-methoxy-3,11-dimethyl-2,3,4,5-tetrahydro-2,6-methanobenzo[d]azocin-6(1H)-yl)ethyl)propan-1-amine], at μ-opioid receptor [3], the EC50 was 14500 ± 653 nM and the Emax came out at 82 ± 2.65%. Moreover, at κ-opioid receptor, the Emax stood at 113 ± 1.45% and the concentration for a half-maximal effect (EC50) amounted to 14700 ± 1240 nM.

On to `COc1ccc2c(c1)[C@]1(CCN3CCC(N(C4CC4)S(=O)(=O)c4ccc(Cl)cc4)CC3)CCN(C)[C@H](C2)[C@@H]1C` [Compound 53, 4-chloro-N-cyclopropyl-N-(1-(2-((2R,6R,11R)-8-methoxy-3,11-dimethyl-2,3,4,5-tetrahydro-2,6-methanobenzo-[d]azocin-6(1H)-yl)ethyl)piperidin-4-yl)-benzenesulfonamide], for which, on μ-opioid receptor [3], the EC50 came out at 1250 ± 85.4 nM and the Emax is 63.3 ± 2.03%. At κ-opioid receptor, the Emax amounted to 13.3 ± 2.19% and the EC50 came out at 7000 ± 3060 nM.

As for `COc1ccc2c(c1)[C@]1(CCN3CCC[C@@H]3C(=O)O)CCN(C)[C@H](C2)[C@@H]1C` [Compound 60, (2-((2R,6S,11R)-8-methoxy-3,11-dimethyl-2,3,4,5-tetrahydro-2,6-methanobenzo[d]azocin-6(1H)-yl)ethyl)-D-proline], at μ-opioid receptor [3], a half-maximal response (EC50) required 4910 ± 1080 nM and the Emax worked out at 49 ± 3.61%. Besides, at κ-opioid receptor, the Emax was 97.7 ± 8.09%.

With `C[C@H]1[C@H]2Cc3ccc(O)cc3[C@]1(CCNC(=O)Nc1cccc(F)c1)CCN2C` [Compound 79, 1-(3-fluorophenyl)-3-(2-((2R,6R,11R)-8-hydroxy-3,11-dimethyl-2,3,4,5-tetrahydro-2,6-methanobenzo[d]azocin-6(1H)-yl)ethyl)urea], at μ-opioid receptor [1], the EC50 is 19.7 ± 1.11 nM and the maximum response (Emax) was 71.6 ± 5.96%. On μ-opioid receptor [2], the EC50 worked out at 39.1 ± 7.13 nM and the Emax was 58.9 ± 7.55%.

As to `C[C@H]1[C@H]2Cc3ccc(O)cc3[C@]1(CCNC(=O)Nc1ccc(F)cc1)CCN2CC1CC1` [Compound 18, 1-(2-((2R,6R,11R)-3-(cyclopropyl-methyl)-8-hydroxy-11-methyl-2,3,4,5-tetrahydro-2,6-methanobenzo[d]azocin-6(1H)-yl)ethyl)-3-(4-fluorophenyl)urea], at μ-opioid receptor [1], the EC50 was determined as 0.12 nM and the Emax was determined as 22.4 ± 1.04%. Also, on μ-opioid receptor [2], the EC50 was 0.31 ± 0.063 nM and the Emax is 4.38 ± 0.35%.

For the compound `C[C@H]1[C@H]2Cc3ccc(O)cc3[C@]1(CCNC(=O)Nc1ccc(F)cc1)CCN2C` [Compound 76, 1-(4-fluorophenyl)-3-(2-((2R,6R,11R)-8-hydroxy-3,11-dimethyl-2,3,4,5-tetrahydro-2,6-methanobenzo[d]azocin-6(1H)-yl)ethyl)urea], on μ-opioid receptor [1], the EC50 was 28.8 ± 10.5 nM and the maximum response (Emax) is 58.5 ± 2.78%. For the same compound, at μ-opioid receptor [2], the EC50 turned out to be 28.4 ± 3.98 nM and the Emax was found to be 28.9 ± 1.69%.
